The values that follow come from patent US8058243B2, “Method for treating a brain cancer with ifenprodil” (HSC Research and Development Limited Partnership, priority 2006, dated 2011).

Structures can show the parent of a compound that is named as a salt. Where two headings read alike, the source gives them in different places.

This assay has as its system murine neural precursor cells (neurosphere cultures). The experiment in a line: HTS of LOPAC library against secondary neurosphere cultures, MTT proliferation assay at 3 μM, day 7 (z score, P value). The class given is cell-based, mouse. (In general: Tetrazolium dyes change colour on reduction, which living cells bring about.)
Setting [1] is: LOPAC library screen at 3 μM, secondary neurosphere cultures, MTT.
[2] abbreviates: LOPAC primary screen, neurosphere MTT proliferation, 3 μM, day 7.
Setting [3] is: yes/no: significantly inhibited neurosphere proliferation (P<0.01) in primary screen.
Setting [4] is: yes/no: significantly inhibited neurosphere proliferation in primary screen.
The mark [5] stands for this setting: LOPAC screen, neurosphere MTT proliferation, 3 μM, day 7.
The mark [6] stands for this setting: yes/no: significantly inhibited neurosphere proliferation (P<0.01) in the primary screen.
Where [7] appears, read: yes = significantly inhibited neurosphere proliferation (P<0.01) in the primary screen.
Setting [8] is: LOPAC library screen, 3 μM, MTT, secondary neurosphere cultures, day 7.
[9] abbreviates: primary LOPAC screen, 3 μM, MTT, neurosphere proliferation.
The mark [10] stands for this setting: yes/no: significantly inhibited neurosphere proliferation in the primary screen.
The mark [11] stands for this setting: LOPAC library screen, 3 μM, MTT, neurosphere cultures.

Take `N[C@H](C(=O)O)c1cc(O)cc(O)c1` [(S)-3,5-Dihydroxyphenylglycine]: the “Z Score” value under setting [1] is recorded as −0.3364.

In the case of `CC(C(=O)O)c1cccc(C(=O)c2ccccc2)c1` (stereo not drawn) [Ketoprofen], the Activity entry is recorded as “no”. For the same compound, the “Z Score” value under setting [1] is −1.164. The compound further returned a Z score under setting [2] of −1.164.

For the compound `CCc1c(C(=O)OC)ncc2[nH]c3cc(OC)c(OC)cc3c12` [Methyl 6,7-dimethoxy-4-ethyl-beta-carboline-3-carboxylate], the “Z Score” value was −1.326. Further, the Z score under setting [2] is recorded as −1.326. Moreover, the Activity result under setting [3] is recorded as “no”.

Under setting [2], `O=C(O)CCCCC1CCSS1` (racemic) [(±)-alpha-Lipoic Acid] yielded a Z score of 0.342. Also, the Activity result under setting [4] is recorded as “no”.

Take `O=[N+]([O-])c1cc2nc(O)c(O)nc2cc1[N+](=O)[O-]` [DNQX]: the “Z Score” value came to 0.9307. Also, the Z score under setting [5] is on record as 0.931. In addition, under setting [3], the Activity entry was “no”.

In the case of `Cl.Cl.Cl.Ic1ccc(N2CCN(Cc3c[nH]c4ncccc34)CC2)cc1` [L-750,667 trihydrochloride], the “Z Score” value is reported as −1.184. For the same compound, the Z score under setting [2] is reported as −1.184. For the same compound, the Activity entry under setting [6] is “no”.

Take `N[C@@H](Cc1ccc(F)cc1)C(=O)O` [p-Fluoro-L-phenylalanine]: where the note is “168 h, 3 µM”, the “Z Score” value is listed as −0.7023 and the Z score is listed as −0.702. Also, under setting [3], the Activity result is on record as “no”.

As for `C=C(C)[C@H]1Cc2c(ccc3c2O[C@@H]2COc4cc(OC)c(OC)cc4[C@@H]2C3=O)O1` [Rotenone], the “Z Score” value is recorded as −11.27. Under setting [2], this compound came in with a Z score of −11.274. Also, the Activity entry under setting [7] was “yes”.

As for `CCN1C(=O)C=CC1=O` [N-Ethylmaleimide], the “Z Score” value is given as −0.02816. The Z score under setting [2] is given as −0.028. Besides, the Activity result under setting [3] is “no”.

For `O=C(O)CCCCC1CCSS1` (stereo not drawn) [(B1)-alpha-Lipoic Acid], the “Z Score” value came to 0.3418.

`CCCCCCCC/C=C\CCCCCCCC(=O)O` [Oleic acid]: the Z score under setting [2] is given as −0.345. Under setting [6], the Activity entry is recorded as “no”.

Turning to `CCCN1CCC[C@H](c2cccc(O)c2)C1.Cl` [R(+)-3PPP hydrochloride], the “Z Score” value was −2.213. The compound also gave a Z score under setting [2] of −2.213. In addition, the Activity entry under setting [4] is “no”.

Consider `C=CCn1c(=O)c2c(nc(-c3ccc(S(=O)(=O)O)cc3)n2C)n(C)c1=O` [1-Allyl-3,7-dimethyl-8-p-sulfophenylxanthine], for which the “Z Score” value under setting [8] is given as −2.178. The compound also registered a Z score under setting [9] of −2.178. Besides, under setting [10], the Activity result is “no”.

As for `CCn1cnc2c(Nc3cccc(Cl)c3)nc(N[C@@H]3CCCC[C@@H]3N)nc21.Cl` [CGP-74514A hydrochloride], the “Z Score” value was −9.117. The compound also gave a Z score under setting [2] of −9.117. Also, the Activity result under setting [6] was “yes”.

`CCOC(=O)[N-]c1cn(N2CCOCC2)n[o+]1` [Molsidomine]: the “Z Score” value (LOPAC library screen at 3 μM, MTT, secondary neurosphere cultures, screened in singlets) was determined as 1.567. Moreover, under setting [2], the Z score is recorded as 1.567. Also, the Activity entry under setting [7] is listed as “no”.

In the case of `O=C1c2c(O)cc(O)cc2OC(c2ccc(O)c(O)c2)C1O` (stereo not drawn) [(B1)-Taxifolin], the “Z Score” value came out at 1.321.

On to `C[C@]12C[C@H](O)[C@H]3[C@@H](CCC4=CC(=O)CC[C@@]43C)[C@@H]1CC[C@@H]2C(=O)CO` [Corticosterone], for which the Activity result is “no”. For the same compound, the “Z Score” value under setting [8] is on record as −2.285. This compound also came in with a Z score under setting [9] of −2.285.

In the case of `CC(C)NCC(O)COc1ccc(CC(N)=O)cc1` (stereo not drawn) [(B1)-Atenolol], the “Z Score” value under setting [1] was −0.6583.

As to `C=CCN1CC[C@]23c4c5ccc(O)c4O[C@H]2/C(=N/NC(=O)c2ccccc2)CC[C@@]3(O)[C@H]1C5` [Naloxone benzoylhydrazone], the “Z Score” value was 1.915. Under setting [2], this compound displayed a Z score of 1.915. Further, the Activity entry under setting [6] is recorded as “no”.

Under setting [2], `N[C@H](C(=O)O)c1cc(O)no1` (racemic) [(±)-Ibotenic acid] had a Z score of −1.650. Moreover, the Activity entry under setting [3] is reported as “no”.

Take `C#C[C@]1(O)CC[C@H]2[C@@H]3CCC4=Cc5nc6nc7ccccc7n6cc5C[C@]4(C)[C@H]3CC[C@@]21C` [WIN 62,577]: the “Z Score” value came out at 2.351. In addition, the Z score under setting [9] was 2.351. Under setting [10], the Activity entry was “no”.

With `NC(=Nc1ccccc1)NC(=O)c1nc(Cl)c(N)nc1N` [Phenamil methanesulfonate], under setting [11], the “Z Score” value was found to be 1.485. For the same compound, the Z score under setting [2] came to 1.485. Besides, the Activity entry under setting [6] is reported as “no”.

As to `C[N+](C)(C)CC=O` [Betaine aldehyde chloride], the Activity result was “no”. Also, where the note is “168 h, 3 µM”, the “Z Score” value is on record as −0.07007 and the Z score is given as −0.070.

The compound `Cl.NCC(O)C1CCCCCCC1` (stereo not drawn) came in with a Z score under setting [5] of −0.575. Under setting [3], the Activity result is “no”.

Regarding `CCCN(CCC)[C@H]1CCc2c(F)ccc(O)c2C1.Cl` [S(−)-UH-301 hydrochloride], the “Z Score” value is on record as −2.706. Further, under setting [2], the Z score is recorded as −2.706. For the same compound, under setting [6], the Activity result is “yes”.

Consider `O=C(OCCN1CCOCC1)C1(c2ccccc2)CCCCC1` [PRE-084], for which the “Z Score” value worked out at 1.311. Under setting [2], this compound had a Z score of 1.311. Besides, the Activity entry under setting [6] is “no”.

Take S-(−)-Lisuride: the “Z Score” value is reported as −0.1473 and the Z score is on record as −0.147.

In the case of `Cl.Cl.Cl.Cl.NCCCNCCCCNCCCN` [Spermine tetrahydrochloride], the Activity entry was “no”, the “Z Score” value was determined as 0.3942 and the Z score is 0.394.

`O=C(O)[C@H]1CCCN[C@H]1C(=O)O` (racemic) [(±)-cis-Piperidine-2,3-dicarboxylic acid] showed a Z score (168 h, 3 µM) of 0.155. The Activity result under setting [4] is given as “no”.

In the case of `COc1ccc(NC(=O)c2ccc(-c3ccc(-c4noc(C)n4)cc3C)cc2)cc1N1CCN(C)CC1` [GR 127935 hydrochloride], the “Z Score” value under setting [1] is −1.081. The Z score under setting [2] is on record as −1.081. Further, the Activity entry under setting [6] is “no”.

For `C(=C\c1ccccc1)/CN1CCN(C(c2ccccc2)c2ccccc2)CC1` [Cinnarizine], the “Z Score” value under setting [8] is −1.375. In addition, the Z score under setting [5] is −1.375.

As to `CCS(=O)(=O)Nc1cccc(C(=C2CCCCC2)c2cnc[nH]2)c1` [A-315456], the “Z Score” value was found to be 0.3628. The Z score under setting [2] stood at 0.363. Also, under setting [7], the Activity entry is on record as “no”.

As for `CNc1cc(NS(=O)(=O)c2ccc(N)cc2)nc(NC)n1.Cl.Cl` [Ro 04-6790 dihydrochloride], the “Z Score” value is recorded as 0.3428. This compound also yielded a Z score under setting [2] of 0.343. Moreover, under setting [4], the Activity entry is “no”.

Take `CC(N)=NCc1cccc(CN)c1.Cl.Cl` [1400W dihydrochloride]: the “Z Score” value is −0.2749. Further, the Z score under setting [9] is on record as −0.275. Also, the Activity result under setting [10] is listed as “no”.

With `Br.Cc1cccc(C2CN(C)CCc3c2cc(O)c(O)c3Cl)c1` (stereo not drawn) [SKF 83959 hydrobromide], the “Z Score” value is on record as −1.357. The same compound returned a Z score under setting [2] of −1.357. In addition, the Activity result under setting [4] is “no”.

For `CN(C)CCC=C1c2ccccc2CCc2ccccc21` [Amitriptyline hydrochloride], under “168 h, 3 µM”, the “Z Score” value came out at 0.7066 and the Z score is on record as 0.707. Moreover, the Activity entry under setting [6] was “no”.

Take `CC(C)(C)c1cc(C=C(C#N)C#N)cc(C(C)(C)C)c1O` [Tyrphostin A9]: under setting [8], the “Z Score” value is −1.746. For the same compound, the Z score under setting [9] was −1.746. For the same compound, the Activity result under setting [10] is “no”.

`C[N+]1(C)CCN(c2ccccc2)CC1.[I-]` [1,1-Dimethyl-4-phenyl-piperazinium iodide]: the “Z Score” value is on record as −1.057. Under setting [5], this compound displayed a Z score of −1.057. Also, the Activity entry under setting [3] is reported as “no”.

Regarding `Nc1ncnc2c1ncn2C1CCCC1` [9-cyclopentyladenine], where the note is “168 h, 3 µM”, the “Z Score” value amounted to 0.4988 and the Z score is 0.499. Besides, the Activity entry under setting [3] was “no”.

As to `CC[N+](CC)(CC)CC(=O)Nc1c(C)cccc1C.[Br-]`, under setting [11], the “Z Score” value stood at 0.2653. This compound returned a Z score under setting [2] of 0.265. Moreover, the Activity entry under setting [3] is recorded as “no”.

Take `CCN(CC)CCOC(=O)c1cc(Cl)c(N)cc1OC.Cl` [SDZ-205,557 hydrochloride]: the “Z Score” value is listed as −2.681. Also, the Z score under setting [2] is recorded as −2.681. The Activity entry under setting [6] was “yes”.

Turning to `CC1CNCCN1S(=O)(=O)c1cccc2cnccc12.Cl.Cl` (stereo not drawn) [1-(5-Isoquinolinylsulfonyl)-2-methylpiperazine dihydrochloride], for the setting “168 h, 3 µM”, the “Z Score” value is given as 0.3352 and the Z score was found to be 0.335. The Activity result under setting [3] was “no”.

`COc1cc(OC)c(C=C2C(O)=Nc3ccccc32)c(OC)c1` [IC 261]: the “Z Score” value was −1.63. Under setting [2], this compound gave a Z score of −1.630. In addition, the Activity entry under setting [4] is given as “no”.

Regarding `CCCN(CCC)CCc1c[nH]c2ccc(C(N)=O)cc12.O=C(O)/C=C\C(=O)O`, the “Z Score” value is given as −1.73. This compound had a Z score under setting [5] of −1.730. Under setting [3], the Activity entry is given as “no”.

As to `CC(C)C[C@H]1C(=O)N2CCC[C@H]2[C@]2(O)O[C@](NC(=O)[C@@H]3C=C4c5cccc6[nH]c(Br)c(c56)C[C@H]4N(C)C3)(C(C)C)C(=O)N12.CS(=O)(=O)O` [(+)-Bromocriptine methanesulfonate], the “Z Score” value amounted to 0.02792. Moreover, the Z score under setting [9] turned out to be 0.028. Moreover, under setting [10], the Activity result was “no”.

As to `Cc1cccc(C)c1OCC(C)N.Cl` (stereo not drawn) [Mexiletene hydrochloride], the “Z Score” value was −1.259. For the same compound, the Z score under setting [2] was −1.259. Also, the Activity entry under setting [7] is “no”.
